Reference: patent publication US10258598B2, “Compounds for use in the prevention or treatment of cancer” ([…], priority 2014, dated 2019)

How the values were obtained:
MAO-A = target: T1, MAO-A (Rattus norvegicus, UniProt P21396); settings: Knoll et al., 1999; cited from earlier work
T1 construct: host or cells: animal dosed in mg/kg (in vivo)
T1 sequence (P21396 1-526): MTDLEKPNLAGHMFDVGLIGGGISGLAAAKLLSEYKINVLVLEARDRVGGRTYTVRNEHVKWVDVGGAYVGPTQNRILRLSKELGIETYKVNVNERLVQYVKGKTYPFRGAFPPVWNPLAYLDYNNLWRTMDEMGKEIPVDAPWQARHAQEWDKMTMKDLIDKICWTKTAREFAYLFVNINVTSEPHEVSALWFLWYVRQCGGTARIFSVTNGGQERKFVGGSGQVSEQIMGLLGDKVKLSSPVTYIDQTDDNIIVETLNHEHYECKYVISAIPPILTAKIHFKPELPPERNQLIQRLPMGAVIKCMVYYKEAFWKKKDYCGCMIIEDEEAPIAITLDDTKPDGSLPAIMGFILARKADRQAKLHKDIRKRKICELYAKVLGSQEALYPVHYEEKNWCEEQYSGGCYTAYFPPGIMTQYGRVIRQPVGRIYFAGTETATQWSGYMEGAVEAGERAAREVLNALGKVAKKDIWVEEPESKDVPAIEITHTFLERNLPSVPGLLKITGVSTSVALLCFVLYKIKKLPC

noradrenergic neurons = settings: Knoll et al., 1999, cited from earlier work
[1] = test system: tetrabenazine-induced learning deficit; assay: Shuttle box: conditioned avoidance reflex, antagonism of tetrabenazine-induced learning deficit; type: in vivo, rat; settings: for very high dose range effective in antagonizing the tetrabenazine-induced learning deficit: attributed to inhibition of MAO-A; for optimal dose that exerted the specific enhancer effect: rats given 1 mg/kg tetrabenazine s.c. one hour prior to training
Description: In a modified version of the shuttle box the acquisition of a two-way conditioned avoidance reflex (CAR) was analyzed during 5 consecutive days. The rat was put in a box divided inside into two parts by a barrier with a small gate in the middle, and the animal was trained to cross the barrier under the influence of a conditioned stimulus (CS, light flash). […] One trial consisted of 10 s intertrial interval, followed by 20 s CS. The last 5 s of CS overlaped the 5 s US. At each learning session, the number of CARs, EFs and intersignal reactions (IRs) are automatically counted and evaluated by multi-way ANOVA.
Tetrabenazine-treatment (1 mg/kg s.c.) depletes at least 90% of norepinephrine and dopamine from their stores in the nerve terminals of the catecholaminergic neurons in the brain stem. Due to the weak performance of the catecholaminergic brain engine, the activation of the cortical neurons remains below the level required for the acquisition of a CAR. The learning deficit caused by tetrabenazine-treatment can be antagonized by the administration of a synthetic CAE substance or an A-type MAO inhibitor, whereas selective inhibition of B-type MAO or inhibition of the reuptake of catecholamines and/or serotonin is ineffective (Knoll et al., 1992).

lung carcinoma = assay: Longevity study on FVB/N mice: spontaneous lung carcinoma at autopsy; type: in vivo; settings: for Number of detected lung carcinoma: 18 months, saline 3 of 4
Description: Five groups of mice are treated daily from sexual maturity with two different doses of
(−)-deprenyl and (−)-BPAP, respectively.
Group 2: BPAP low dose: 0.0001 mg/kg (−)-BPAP
Group 3: BPAP high dose: 0.05 mg/kg (−)-BPAP
A total of 172 mice entered the experiments. Body weight is measured bimonthly.
For monitoring, we planned to sacrifice mice from each group at 6-month, 1-year, 1.5-year and 2-year time-points; the rest of the animals are kept until spontaneous death.
The results are shown in Table 4 and on FIGS. 19 and 20. Significance levels were calculated with two-sided Chi-square test.

mammary tumors = settings: ThyagaRajan et al. 1998; cited from earlier work
[2] = test system: Wistar-Logan strain of rats; settings: cited from earlier work

Structure (SMILES) | dose that blocks the activity of MAO-A (MAO-A) | concentration range of the non-specific enhancer effect relative to the specific one (noradrenergic neurons; Knoll, Miklya, Knoll B, 2002) | concentration range of the specific enhancer effect (noradrenergic neurons) | very high dose range effective in antagonizing the tetrabenazine-induced learning deficit [1] | optimal dose that exerted the specific enhancer effect [1] | dose with the non-specific enhancer effect selected for the longevity study ([1]; rats given 1 mg/kg tetrabenazine s.c., for Deprenyl the less effective dose was chosen) | Number of detected lung carcinoma (lung carcinoma; 0.0001 mg/kg daily, 4 dissected mice) | Number of detected lung carcinoma (lung carcinoma; 0.05 mg/kg daily, 4 dissected mice) | manifestation of lung carcinoma (lung carcinoma; specific enhancer (extremely low) dose, 18 months daily treatment) | dose inhibiting the development of mammary tumors (mammary tumors) | rats that lived longer than the maximum lifespan ever observed in the strain ([2]; out of the 50 treated HP rats) | lifespan ([2]; sexually high performing (HP) rats treated for life, n=50, saline HP 151.24±1.36) | lifespan versus saline-treated peers ([2]; sexually low performing (LP) rats treated for life, n=49, saline LP 134.58±2.29 weeks) | form of the dose-effect relation of the enhancer effect ([1]; FIG. 3) | Number of detected lung carcinoma (lung carcinoma; 0.001 mg/kg daily, 2 dissected mice) | Number of detected lung carcinoma (lung carcinoma; 0.1 mg/kg daily, 4 dissected mice)
CCCN[C@H](CCC)Cc1cc2ccccc2o1 [(−)-BPAP, (R)-1-(benzofuran-2-yl)-2-propylamino pentane] | higher than 2 mg/kg | 10 million times higher concentration range | femto/picomolar concentration range | 2000 to 10000 µg/kg | 0.1 µg/kg | 50 µg/kg | 0 | 1 | completely prevented |  |  |  |  |  |  | 
C#CCN(C)[C@H](C)Cc1ccccc1 [(−)-Deprenyl, (R)—N-methyl-N-(1-phenylpropan-2-yl)prop-2-yn-1-amine] |  |  |  | 5000 to 10000 µg/kg | 1 µg/kg |  |  |  |  | ≥ 0.25 mg/kg body weight | 17 rats | 185.30±1.96 weeks | lived significantly longer than their saline treated peers | bi-modal, bell-shaped dose-effect-relation | 0 | 1
